Results reported in paper PMC12483217, “Exploring β-catenin and TCF4 interaction in complex environments by means of novel biosensing platform focal molography” (PLOS One, 2025).
Where a SMILES comes first, the peptide text is derived from it. Where no end group is shown, it is not given here. The star is where a group is joined. Biotin = O=C1N[C@H]2[C@H](CS[C@H]2CCCCC(=O)*)N1

Experiments:
[1] = target: T1, Human β-catenin (Homo sapiens, UniProt P35222); experiment: Focal molography (FM) direct binding of β-catenin to immobilised TCO-TCF4(7–30), RKO cell lysate; conditions: cell lysate 1 Mio cells/mL, range over sensors and runs
T1 construct: Variant: β-catenin (human) (Hs134–670)+TCF4(Hs1–53); purchased Proteros Biostructures
T1 sequence (P35222 134-670): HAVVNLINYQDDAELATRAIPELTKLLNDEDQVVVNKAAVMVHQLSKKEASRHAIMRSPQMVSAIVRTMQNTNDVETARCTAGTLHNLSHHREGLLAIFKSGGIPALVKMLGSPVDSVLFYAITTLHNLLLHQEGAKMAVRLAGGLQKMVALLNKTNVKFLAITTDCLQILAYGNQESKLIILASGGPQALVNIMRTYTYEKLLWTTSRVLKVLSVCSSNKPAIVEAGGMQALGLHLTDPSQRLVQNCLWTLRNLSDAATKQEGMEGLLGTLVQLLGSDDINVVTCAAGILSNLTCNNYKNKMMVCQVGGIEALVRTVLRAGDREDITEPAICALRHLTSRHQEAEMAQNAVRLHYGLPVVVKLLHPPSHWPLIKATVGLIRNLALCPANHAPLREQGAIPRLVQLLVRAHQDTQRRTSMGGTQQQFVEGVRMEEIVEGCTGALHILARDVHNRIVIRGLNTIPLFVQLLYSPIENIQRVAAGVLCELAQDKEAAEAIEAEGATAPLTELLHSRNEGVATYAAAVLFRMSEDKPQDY
Experimental: (§1) FM experiments were conducted using a prototype FM reader from the “Fermi” generation developed by lino Biotech AG (Supplementary Figure 10 S1 File). The flow channel shape was hexagonal (Supplementary Figure 9 A&C S1 File) and the parallel region measured 12.0 x 1.9 x 0.1 mm. Only 18 molograms were recorded per measurement in order to save computing power for faster sampling rates of the intensities of the single molograms. Thus, the lower part of the double flow chamber was used. In all FM experiments, the same running buffer as in SPR was used. Samples in glass vials were injected from the autosampler (Alias, Spark Holland) and transferred with a syringe pump (Precision Syringe Drive/4, Hamilton) to the flow channel for 17 seconds at a flow rate of 400 µL/min (sample delivery step). […] During the association phase, the sample was passed through the flow chamber for one minute at a flow rate of 50 µL/min. To prevent the recording of the dilutive end of the sample, a fast flow rate of 500 µL/min was applied for two minutes to record the dissociation phase, followed by additional two minutes at a flow rate of 50 µL/min. For the regeneration, regeneration solution was injected from glass vials into the autosampler loop. The regeneration solution was passed through the flow chamber for three minutes at a flow rate of 100 µL/min.
(§2) A sensor chip of FM measured 9 x 18 mm. […]

[2] = target: T1, Human β-catenin; experiment: Focal molography (FM) direct binding of β-catenin to immobilised TCO-TCF4(7–30), buffer; conditions: range over 3 sensors x 3 runs
Experimental: as §1, §2

[3] = target: T1, Human β-catenin; experiment: SPR direct binding of β-catenin to immobilised biotinylated TCF4(7–30) in buffer; conditions: only one Hill slope
Experimental: (§3) For all SPR experiments, the running buffer consisting of 10 mM HEPES, 150 mM NaCl, 0.01% (v/v) P20, 1% (v/v) glycerol, 0.01% (v/v) BSA and 2% (v/v) DMSO at pH 7.4 was used. The TCF(7–30) peptide ([…]-K-biotin-amide) peptide was obtained from Biosyntan GmbH. Experiments were conducted at room temperature on a Biacore T200 (GE Healthcare, Uppsala, Sweden). The peptide was immobilized onto a Series S sensor chip SA (10352113, Cytiva, Uppsala, Sweden). Following the manufacturer’s protocol, the sensor was first prepared, and the peptide was injected at a concentration of 10 nM at a flow rate of 10 µL/min. Immobilization was achieved via biotin-streptavidin interaction to a level of 5, 25 and 50 RU in three different flow channels respectively. […] Binding analysis was monitored on all four flow channels with sample association time of one minute and dissociation time of four minutes at a flow rate of 50 µL/min. […]
(§4) The equilibrium dissociation constant (KD) and half maximal inhibitory concentration (IC50) were determined from binding signals collected in direct binding and competition experiments, respectively. […]
(§5) The SPR data was visualized and analyzed using GraphPad Prism 10.0.0 (Boston, Massachusetts USA, www.graphpad.com). For SPR analysis, signals recorded on the active surfaces were referenced with signals from the reference channel. […]

[4] = target: T1, Human β-catenin; experiment: Focal molography (FM) competition: free TCF4(7–51) with 250 nM β-catenin over TCF4(7–30) sensor, buffer; format: binding; conditions: range over 3 sensors x 3 runs
Experimental: as §1, §2

[5] = target: T1, Human β-catenin; experiment: SPR competition: free TCF4(7–51) with 250 nM β-catenin over immobilised TCF4(7–30), buffer; format: binding; conditions: buffer pH 7.4, 95% confidence interval of fit
Experimental: as §3, §4, §5

[6] = target: T1, Human β-catenin; experiment: Focal molography (FM) competition: free TCF4(7–51) with 250 nM β-catenin over TCF4(7–30) sensor, RKO cell lysate; format: binding; conditions: cell lysate 1 Mio cells/mL
Experimental: as §1
A sensor chip of FM measured 9 x 18 mm. The sensing area per mologram was 400 x 400 µm with 54 molograms (6 x 9 array) being present on one sensor chip. The center to center spacing of molograms in flow direction was 690 µm and 750 µm perpendicular to the flow. The sensors used in FM were manufactured and treated following published manufacturing protocols with the difference that the photoprotective PhSNPPOC group was replaced by a more hydrophilic PySNPPOC group. To activate the ridges using reactive immersion lithography, a phase mask was placed on the surface with a layer of 0.1% (v/v) hydroxyl amine in DMSO applied in between the mask and the sensor surface. The chip was exposed at 405 nm at a dose of 4000 mJ/cm^2 with a custom-built setup. Following exposure, the chip was incubated in 1 mM methyltetrazine-4-polyethyleneglycol-N-Hydroxysuccinimide (MeTz-PEG4-NHS) dissolved in HBST (10 mM HEPES, 150 mM NaCl, 0.05% (v/v) Tween20, pH 8.0) for 1 hour. After incubation, the chip was washed sequentially with 50:50 H2O/DMSO, DMSO, Isopropanol and H2O. Next, the entire chip surface, including the grooves, was activated by flood illumination with a dose of 18 J/cm^2. The chip was washed sequentially with 50:50 MQ H2O/DMSO, DMSO, Isopropanol and MQ H2O. As a final step, the chip was incubated with 10 mM tetrazine (Tz)-PEG5-NHS in HBST (10 mM HEPES, 150 mM NaCl, 0.05% (v/v) Tween20, pH 8.0) for 1 hour and washed with isopropanol and H2O. […]

[7] = target: T2, beta-catenin (Homo sapiens, UniProt P35222); experiment: SPR
T2 chain: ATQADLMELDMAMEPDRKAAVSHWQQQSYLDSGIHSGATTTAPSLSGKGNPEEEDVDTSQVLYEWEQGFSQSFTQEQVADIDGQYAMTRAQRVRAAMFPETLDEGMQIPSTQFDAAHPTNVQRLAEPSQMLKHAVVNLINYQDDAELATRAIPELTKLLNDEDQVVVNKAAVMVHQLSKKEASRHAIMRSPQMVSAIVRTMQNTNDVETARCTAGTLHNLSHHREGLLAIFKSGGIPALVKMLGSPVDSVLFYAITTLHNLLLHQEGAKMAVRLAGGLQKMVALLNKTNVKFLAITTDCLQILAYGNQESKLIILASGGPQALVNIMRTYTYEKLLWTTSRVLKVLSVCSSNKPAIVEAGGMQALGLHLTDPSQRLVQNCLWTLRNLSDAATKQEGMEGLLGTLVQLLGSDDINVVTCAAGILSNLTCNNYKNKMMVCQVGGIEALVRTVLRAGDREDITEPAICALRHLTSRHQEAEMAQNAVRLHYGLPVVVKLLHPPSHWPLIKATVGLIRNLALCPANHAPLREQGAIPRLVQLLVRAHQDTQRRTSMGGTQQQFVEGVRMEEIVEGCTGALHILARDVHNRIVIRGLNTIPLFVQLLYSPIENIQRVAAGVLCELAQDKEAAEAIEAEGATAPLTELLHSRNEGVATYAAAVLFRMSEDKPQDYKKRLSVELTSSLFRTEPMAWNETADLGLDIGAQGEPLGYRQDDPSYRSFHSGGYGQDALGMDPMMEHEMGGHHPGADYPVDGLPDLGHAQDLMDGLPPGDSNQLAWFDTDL

In the case of CC[C@H](C)[C@H](NC(=O)[C@H](CC(C)C)NC(=O)[C@H](CCC(=O)O)NC(=O)[C@H](CC(=O)O)NC(=O)[C@H](CC(N)=O)NC(=O)[C@H](C)NC(=O)CNC(=O)[C@H](CC(C)C)NC(=O)[C@H](CC(=O)O)NC(=O)[C@H](CC(=O)O)NC(=O)CNC(=O)CNC(=O)CN)C(=O)N[C@@H](CO)C(=O)N[C@@H](Cc1ccccc1)C(=O)N[C@@H](CCCCN)C(=O)N[C@@H](CC(=O)O)C(=O)N[C@@H](CCC(=O)O)C(=O)NCC(=O)N[C@@H](CCC(=O)O)C(=O)N[C@@H](CCC(N)=O)C(=O)N[C@@H](CCC(=O)O)C(=O)N[C@@H](CCC(=O)O)C(=O)N[C@@H](CCCCN)C(=O)O [TCF4(7–30)] (H-GGGDDLGANDELISFKDEGEQEEK-OH), the Kd [1] is reported as 100 to 140 nM and the Kd [2] is reported as 68 to 160 nM.

With CC[C@H](C)[C@H](NC(=O)[C@H](CC(C)C)NC(=O)[C@H](CCC(=O)O)NC(=O)[C@H](CC(=O)O)NC(=O)[C@H](CC(N)=O)NC(=O)[C@H](C)NC(=O)CNC(=O)[C@H](CC(C)C)NC(=O)[C@H](CC(=O)O)NC(=O)[C@H](CC(=O)O)NC(=O)CNC(=O)CNC(=O)CN)C(=O)N[C@@H](CO)C(=O)N[C@@H](Cc1ccccc1)C(=O)N[C@@H](CCCCN)C(=O)N[C@@H](CC(=O)O)C(=O)N[C@@H](CCC(=O)O)C(=O)NCC(=O)N[C@@H](CCC(=O)O)C(=O)N[C@@H](CCC(N)=O)C(=O)N[C@@H](CCC(=O)O)C(=O)N[C@@H](CCC(=O)O)C(=O)N[C@@H](CCCCN)C(=O)N[C@@H](CCCCNC(=O)CCCC[C@@H]1SC[C@@H]2NC(=O)N[C@@H]21)C(N)=O [biotinylated TCF4(7–30)] (H-GGGDDLGANDELISFKDEGEQEEKK(Biotin)-NH2; N-terminus assumed) the “Hill slope of the dose-response” value [3] was 1.21.

In the case of “GGGDDLGANDELISFKDEGEQEEKSSENSSAERDLADVKSSLVNE [TCF4(7–51)]”, the IC50 [4] is reported as 110 to 200 nM, the IC50 [5] is reported as 95 to 115 nM and the IC50 ([6]; Sensor 1, average of three runs, SD, read-out: IC50, Average ± SD) is reported as 170 nM. For the same molecule, the IC50 ([6]; Sensor 2, average of three runs, SD, read-out: IC50, Average ± SD) was 160 nM, the IC50 ([6]; Sensor 3, average of three runs, SD, read-out: IC50, Average ± SD) was 140 nM and the IC50 ([6]; range over sensors and runs, read-out: IC50) was 140 to 170 nM.

B1: TCF4 peptide TCF(7-51) 7-51 (peptide)
chain: GGGDDLGANDELISFKDEGEQEEKSSENSSAERDLADVKSSLVNE
With B1 the Kd [7] was about 108 nM.
